{"source": "patent US10517833B2", "about": "(Cardiora Pty Ltd., priority 2011, dated 2019)", "key": {"[1]": {"test_system": "pediatric patients at high risk for developing low cardiac output syndrome (LCOS)", "settings": "cited from earlier work"}, "[2]": {"test_system": "patients with class III or IV CHF", "settings": "after milrinone therapy; 5 patients at baseline; cited from earlier work"}, "[3]": {"test": "pH solubility studies on Milrinone (saturated solubility in different buffers)", "assay_type": "physicochemical", "settings": "for solubility at 24 h: thermodynamic from solid", "experimental": "1. pH 1.2-Hydrochloric Acid Buffer\n3. pH 6.8-Phosphate Buffer\n4. pH 7.4-Phosphate Buffer.\n1. 2 mL buffer solution is placed into a 8 mL USP Type I clear glass vial (with screw cap and PTFE septa)\n3. The addition of Milrinone is continued till the formation of saturated solution.\n4. The pH of the saturated solution is measured after the addition of Milrinone.\n5. If there is any difference in pH more than 0.1 units is observed when compared to the initial pH, the pH was adjusted with acid or base respectively to bring it to the initial pH.\n6. The vials are closed with screw cap and kept for mixing using rotary tube shaker for 24 h."}, "patients with severe CHF [4]": {"test_system": "patients with severe CHF", "settings": "cited from earlier work"}, "[5]": {"settings": "after 6 hours (equilibrium), AHF patients, cited from earlier work"}, "[6]": {"test_system": "Human internal mammary arterial rings", "settings": "rings pretreated with milrinone; cited from earlier work"}, "[7]": {"test_system": "patients with NYHA class III or IV HF and pulmonary vascular resistance of 200 dynes/s/cm or more", "design": "dose or concentration left out as unconfirmed", "settings": "cited from earlier work"}, "[8]": {"test_system": "patients undergoing cardiopulmonary bypass", "settings": "cited from earlier work"}, "[9]": {"test_system": "pediatric patients with low cardiac output", "settings": "intravenous; cited from earlier work"}, "refractory HF patients": {"test_system": "refractory HF patients", "settings": "12-month study, cited from earlier work"}, "[10]": {"test_system": "patients undergoing CABG surgery", "settings": "ten minutes after drug administration versus before; cited from earlier work"}, "[11]": {"test_system": "patients with left ventricular dysfunction and/or pulmonary hypertension", "settings": "50 μg/kg loading then 0.5 μg/kg/minute, n=15; cited from earlier work"}, "[12]": {"test_system": "patients with endstage CHF", "settings": "compared with the preceding 3 months; cited from earlier work"}, "patients with severe CHF [13]": {"test_system": "patients with severe CHF", "settings": "oral, cited from earlier work"}, "patients with CHF": {"test_system": "patients with CHF", "design": "dose or concentration left out as unconfirmed", "settings": "15 minutes post-dosing, cited from earlier work"}}, "note": "Where two headings read alike, the source gives them in different places."}
{"smiles": "Cc1[nH]c(=O)c(C#N)cc1-c1ccncc1", "note": "[milrinone, 1,2-dihydro-3-cyano-6-methyl-5-(4-pyridinyl)-2(1H)-pyridinone]", "values": [{"measurement": "patients who developed LCOS", "setting": "[1]; high-dose group, within 36 hours", "result": 9.6, "unit": "%"}, {"measurement": "patients with prolonged hospital stays (longer than 15 days)", "setting": "[1]; high-dose group", "result": 13.5, "unit": "%"}, {"measurement": "RRR of LCOS", "setting": "[1]; low-dose group versus placebo, not statistically significant", "result": 34, "unit": "%"}, {"measurement": "patients who developed LCOS", "setting": "[1]; low-dose group", "result": 17.7, "unit": "%"}, {"measurement": "patients with prolonged hospital stays (longer than 15 days)", "setting": "[1]; low-dose group", "result": 8.2, "unit": "%"}, {"measurement": "inducible VT during programmed right ventricular stimulation", "setting": "[2]", "result": "none of the patients experienced inducible VT"}, {"measurement": "solubility", "setting": "[3]; acidic pH, decreases gradually with increase in pH", "result": "highly soluble"}, {"measurement": "solubility at 24 h", "setting": "[3]; aqueous buffer, pH 4.5 Acetate Buffer", "result": 1830, "unit": "µg/mL"}, {"measurement": "solubility at 24 h", "setting": "[3]; aqueous buffer, pH 6.8 Phosphate Buffer", "result": 742, "unit": "µg/mL"}, {"measurement": "solubility at 24 h", "setting": "[3]; aqueous buffer, pH 7.4 Phosphate Buffer", "result": 603, "unit": "µg/mL"}, {"measurement": "solubility at 24 h", "setting": "[3]; hydrochloric acid buffer, simulated gastric fluid, pH 1.2 Hydrochloric Acide Buffer", "result": 25400, "unit": "µg/mL"}, {"measurement": "left ventricular end-diastolic pressure", "setting": "patients with severe CHF [4]; after median short-term infusion 75 μg/kg IV, from 27 at baseline", "result": 18, "unit": "mmHg"}, {"measurement": "increase in left ventricular ejection fraction", "setting": "patients with severe CHF [4]; following a 7.5 mg oral dose, 10 patients on drug for 6 months or longer", "result": 27, "unit": "%"}, {"measurement": "decrease in mean arterial pressure", "setting": "patients with severe CHF [4]; intravenous", "result": 6, "unit": "%"}, {"measurement": "increase in peak positive first derivative of left ventricular pressure (dP/dT)", "setting": "patients with severe CHF [4]; intravenous", "result": 28, "unit": "%"}, {"measurement": "increase in resting heart rate", "setting": "patients with severe CHF [4]; intravenous", "result": 8, "unit": "%"}, {"measurement": "fever, thrombocytopenia, or gastrointestinal toxicity", "setting": "patients with severe CHF [4]; oral therapy, average 29 mg daily, up to 11 months", "result": "No evidence"}, {"measurement": "plasma milrinone concentration", "setting": "[5]; continuous infusion 0.25 μg/kg after loading dose", "result": 97, "unit": "ng/mL"}, {"measurement": "plasma milrinone concentration", "setting": "[5]; continuous infusion 0.5 μg/kg after loading dose", "result": 197, "unit": "ng/mL"}, {"measurement": "plasma milrinone concentration", "setting": "[5]; continuous infusion 0.75 μg/kg after loading dose", "result": 284, "unit": "ng/mL"}, {"measurement": "vasoconstriction by K+, ET-1, U46619 and phenylephrine", "setting": "[6]", "result": "significantly less vasoconstricition"}, {"measurement": "mean decrease in pulmonary vascular resistance", "setting": "[7]; at 5 minutes", "result": 31, "unit": "%"}, {"measurement": "duration of response", "setting": "[7]", "result": "at least 20 minutes"}, {"measurement": "Plasma concentrations of IL1-beta and IL6", "setting": "[8]; after CPB, versus control group, 0.5 μg/kg/minute for 24 hours", "result": "significantly lower"}, {"measurement": "concentrations of cyclic adenosine monophosphate", "setting": "[8]; versus controls", "result": "significantly increased"}, {"measurement": "average peak plasma concentration", "setting": "[9]", "result": 235, "unit": "ng/mL"}, {"measurement": "mean decrease in blood pressure", "setting": "[9]", "result": 12, "unit": "%"}, {"measurement": "emergency room admissions", "setting": "refractory HF patients; from 21 in previous year", "result": 10}, {"measurement": "hospital admissions", "setting": "refractory HF patients; from 75 in previous year", "result": 34}, {"measurement": "hospital days", "setting": "refractory HF patients; from 528 in previous year", "result": 150}, {"measurement": "change in IMA flow", "setting": "[10]", "result": 24, "unit": "%"}, {"measurement": "weaning from cardiopulmonary bypass", "setting": "[11]", "result": "all patients were successfully weaned"}, {"measurement": "drop in number of hospitalizations", "setting": "[12]", "result": "fourfold"}, {"measurement": "mortality rate", "setting": "patients with severe CHF [13]; at 1 year of therapy", "result": 63, "unit": "%"}, {"measurement": "mortality rate", "setting": "patients with severe CHF [13]; at 6 months", "result": 39, "unit": "%"}, {"measurement": "patients with adverse effects", "setting": "patients with severe CHF [13]; average 27 mg/day", "result": 11, "unit": "%"}, {"measurement": "patients with drug withdrawal due to adverse effects", "setting": "patients with severe CHF [13]; average 27 mg/day", "result": 4, "unit": "%"}, {"measurement": "patients improved by at least one New York Heart Association functional class", "setting": "patients with severe CHF [13]; within 1 month of therapy, remaining 94 patients", "result": 51, "unit": "%"}, {"measurement": "pulmonary vascular resistance", "setting": "patients with CHF; from 3.9", "result": 2.5, "unit": "Wood units"}, {"measurement": "Cardiac output", "setting": "patients with CHF; from 4.0", "result": 5.1, "unit": "L/min"}, {"measurement": "pulmonary capillary wedge pressure", "setting": "patients with CHF; from 20", "result": 15, "unit": "mmHg"}, {"measurement": "mean pulmonary artery pressure", "setting": "patients with CHF; from 35", "result": 28, "unit": "mmHg"}]}
{"smiles": "CNC[C@H](O)c1ccc(O)c(O)c1", "note": "[epinephrine]", "values": [{"measurement": "change in IMA flow", "setting": "[10]", "result": "unchanged"}]}
